Marks after values point to notes of the source that are not given here. Positions of bridges follow the written chain, without caps; N, C: chain ends. Residues, ends and D or L forms follow the SMILES beside them.
Tests used:
Type in all cases: cell-based
[1] = tested on: Staphylococcus aureus 502a; assay: Microbicidal suspension assay, killing quantified by colony counts; conditions: for % killed: 37 C.
Procedure: Killing was quantified by colony counts.
Additional antimicrobial assays were conducted on other microbial organisms. […] In FIG. […] Killing was quantified by colony counts. […] The limit of detection (1 colony per plate) was equal to 1×10^3 colony forming units in the incubation mixture.
It has been proposed that salt sensitivity of airway defensins underlies the susceptibility of cystic fibrosis patients to pulmonary infections.
(§1) An acyclic version of theta defensin was also tested for antimicrobial activity. […] Killing activity was quantified by colony counts after 18 hrs.
(§2) The microbicidal activity in the presence of physiological salt concentrations was tested against various microorganisms in various buffers.

[2] = tested on: Salmonella typhimurium, PhoP^−; assay: as above; conditions: 2 hr, 10 mM PIPES, pH 7.4, 5 mM glucose; FIG. 9
[3] = tested on: Listeria monocytogenes EDG; assay: as above; conditions: for % killed: RTD-1 10 mg/ml, 2 h, 37 C.
[4] = tested on: Candida albicans; assay: as above
[5] = tested on: Escherichia coli ML35; assay: as above; conditions: for % killed: 2 h, 37 C.
Procedure: Additional antimicrobial assays were conducted on other microbial organisms. […] In FIG. 9A, S. aureus 502a was incubated with increasing concentrations of natural or synthetic peptide for 30 min at 37° C. in 10 mM PIPES, pH 7.4, containing 5 mM glucose. Killing was quantified by colony counts. […] The limit of detection (1 colony per plate) was equal to 1×10^3 colony forming units in the incubation mixture.
as §1, §2

[6] = tested on: Cryptococcus neoformans 271a; assay: as above; conditions: for % killed: RTD-1 10 mg/ml, 2 h, 37 C.
[7] = tested on: Escherichia coli ML35; assay: Agar diffusion assay
Procedure: (§3) The purified chromatographic peaks were screened for antibacterial activity against Escherichia coli ML35 and Staphylococcus aureus 502a. Briefly, antibacterial activity was screened with an agar diffusion assay using lyophilized samples of HPLC fractions dissolved in 5 μl of 0.01% acetic acid as described by Lehrer et al., J. Immunol. Methods 137:167-173 (1991)).
(§4) Agar diffusion assays and microbicidal suspension assays were used to examine the activity of theta defensin against Staphylococcus aureus 502A, Escherichia coli ML35, Listeria monocytogenes, and Cryptococcus neoformans.

[8] = tested on: Staphylococcus aureus 502a; assay: Agar diffusion assay
Procedure: as §3, §4

[9] = tested on: Cryptococcus neoformans; assay: Agar diffusion assay; conditions: 10, 30, 100 or 300 μg/ml; agar seeded with 1×10^6 colony forming units
From the text: as §4

[10] = tested on: Listeria monocytogenes; assay: Agar diffusion assay; conditions: 10, 30, 100 or 300 μg/ml; agar seeded with 1×10^6 colony forming units
From the text: as §4

[11] = 2 hr, 10 mM PIPES, pH 7.4, 5 mM glucose, FIG. 9
[12] = 10 mM PIPES, pH 7.4, 5 mM glucose, 150 mM NaCl
[13] = 10, 30, 100 or 300 μg/ml, agar seeded with 1×10^6 colony forming units

`CC[C@H](C)[C@@H]1NC(=O)[C@@H]2CSSC[C@H](NC(=O)[C@H](CCCNC(=N)N)NC(=O)[C@@H]3CSSC[C@H](NC1=O)C(=O)N[C@@H]([C@@H](C)O)C(=O)N[C@@H](CCCNC(=N)N)C(=O)NCC(=O)N[C@@H](Cc1ccccc1)C(=O)N3)C(=O)N[C@@H](CC(C)C)C(=O)N[C@H]1CSSC[C@H](NC(=O)[C@H](C(C)C)NC(=O)CNC(=O)[C@H](CCCNC(=N)N)NC(=O)[C@H](CCCNC(=N)N)NC1=O)C(=O)N[C@@H](CCCNC(=N)N)C(=O)N2` [RTD-1] (cyclo(GFCRCLCRRGVCRCICTR); disulfide 3-16, 5-14, 7-12) was tested, and the “effect of NaCl on staphylocidal activity” value ([1]; 10 μg/ml peptide, 2 h, NaCl concentrations as high as 150 mM) was “little effect”, the “microbicidal activity (killing)” value ([1]; 10 mM PIPES, pH 7.4, 5 mM glucose, 37° C., FIG. 9) was “killed” and the “% killed” value ([1]; 2 h, 10 mM PIPES, pH 7.4, 5 mM glucose, 150 mM NaCl, 1-2 × 10^6 CFU/ml) was over 99%. The “% killed” value ([1]; 2 h, 10 mM Tris-HCl, pH 7.4, 150 mM NaCl) was over 99.99%, the “peptide concentration reducing colony counts to below the level of detection” value ([1]; 2 h at 37° C. in 10 mM PIPES, pH 7.4) was at least 4 µg/mL and the “% killed” value ([1]; RTD-1 25 mg/ml, 2 h, 10 mM Tris-HCl, pH 7.4, 50% human AB serum) was >99* %. The “microbicidal activity (killing)” value [2] was “killed”, the “microbicidal activity (killing)” value [3, 11] was “killed” and the “% killed” value [3, 12] was over 99.99%. The “% killed” value ([3]; 10 mM Tris HCl, pH 7.4, 150 mM NaCl) was over 99.99%, the “microbicidal activity (killing)” value [4, 11] was “killed” and the “% killed” value ([4]; RTD-1 10 mg/ml, 2 h, 37 C., 10 mM Tris HCl, pH 7.4, 150 mM NaCl) was over 98%. For the same molecule, the “microbicidal activity (killing)” value [5, 11] was “killed”, the “% killed” value ([5]; RTD-1 25 mg/ml, 10 mM Tris-HCl, pH 7.4, 25% human AB serum) was >99* % and the “% killed” value ([5]; RTD-1, 10 mM PIPES, pH 7.4, 5 mM glucose, 150 mM NaCl) was over 99%. The “% killed” value ([5]; RTD-1, 10 mM Tris-HCl, pH 7.4, 150 mM NaCl) was over 99.99%, the “activity of cyclic form relative to acyclic form” value ([5]; gram negative bacteria (E. coli)) was “about three times more active” and the “microbicidal activity (killing)” value [6, 11] was “killed”. The “% killed” value [6, 12] was over 99.99%, the “% killed” value ([6]; 10 mM Tris-HCl, pH 7.4, 150 mM NaCl) was over 99.99% and the zone of inhibition [7, 13] was “dose dependent increase”. The “antibacterial activity compared with the other leukocyte peptides isolated” value ([7]; screen of purified HPLC peaks) was “greatest activity”, the zone of inhibition [8, 13] was “dose dependent increase” and the “antibacterial activity compared with the other leukocyte peptides isolated” value ([8]; screen of purified HPLC peaks) was “greatest activity”. The zone of inhibition [9] was “dose dependent increase” and the zone of inhibition [10] was “dose dependent increase”.
